Reference: the supplement of paper PMC10627819

Columns and labels:
B. subtilis 168 [1] = test: Bliss interaction score (quartile over a dose matrix) (fitness difference); higher = more antagonism (negative = synergy)
Outline: (§1)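 Quartiles summarise the Bliss score over technical, biological and donor/recipient replicates, where the score is observed minus expected fitness under a product model. Expected fitness uses single-drug values inferred from combination data. Fitness is OD595 at entry into stationary phase over the plate's robust no-drug mean, capped at 1.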

S. aureus Newman = test: as above
Outline: as §1

S. pneumoniae D39V = test: as above
Outline: as §1

S. aureus DSM 20231 = test: as above
Outline: as §1

B. subtilis 168 [2] = test: fitness (endpoint OD595 vs no drug) (fraction); higher = more growth
Outline: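 Plates with 384 wells were inoculated at OD595 0.01 using 30 µl of TSB, LB Lennox or CY, or 55 µl for S. pneumoniae. Incubation was at 37 °C, with OD595 measured every 30 min for 14 h. Fitness is the stationary-phase transition optical density over the robust mean of no-drug control wells, after first-reading background subtraction; it is capped at 1.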
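For Bliss interaction score (quartile over a dose matrix) in this document: first quartile when negative (synergy) and third quartile when positive (antagonism).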

CN(C)c1cc(NC(=O)CNC(C)(C)C)c(O)c2c1C[C@H]1C[C@H]3[C@H](N(C)C)C(O)=C(C(N)=O)C(=O)[C@@]3(O)C(O)=C1C2=O [Tigecycline] + COc1cc(Cc2cnc(N)nc2N)cc(OC)c1OC [Trimethoprim]
Conditions | Bliss interaction score
B. subtilis 168 [1] | 0.121
S. aureus DSM 20231 | -0.0664
S. aureus Newman | -0.0503
S. pneumoniae D39V | -0.119

fitness, B. subtilis 168 [2], one replicate
Conditions | partner 0.1 µg/mL | partner 0.125 µg/mL | partner 0.2 µg/mL | partner 0.25 µg/mL | partner 0.4 µg/mL | partner 0.5 µg/mL | partner 1 µg/mL | partner 2 µg/mL
first compound 0.039 µg/mL | 0.879 | 0.739 | 0.77 | – | 0.58 | – | 0.505 | 0.438
first compound 0.078 µg/mL | 0.896 | 0.727 | 0.754 | – | 0.577 | – | 0.455 | 0.408
first compound 0.125 µg/mL | – | 0.898 | – | 0.749 | – | 0.694 | – | –
first compound 0.156 µg/mL | 0.883 | 0.758 | 0.814 | – | 0.546 | – | 0.402 | 0.357
first compound 0.25 µg/mL | – | 0.798 | – | 0.546 | – | 0.55 | – | –
first compound 0.5 µg/mL | – | 0.87 | – | 0.695 | – | 0.633 | – | –

fitness, B. subtilis 168 [2]
Conditions | first compound 0.039 µg/mL | first compound 0.078 µg/mL | first compound 0.156 µg/mL
partner 0.25 µg/mL | 0.657 | 0.653 | 0.677
partner 0.5 µg/mL | 0.567 | 0.532 | 0.529

COc1cccc2c1C(=O)c1c(O)c3c(c(O)c1C2=O)C[C@@](O)(C(=O)CO)C[C@@H]3O[C@H]1C[C@H](N)[C@H](O)[C@H](C)O1 [Doxorubicin] + CO[C@@H]1[C@@H](OC(N)=O)[C@@H](O)[C@H](Oc2ccc3c(O)c(NC(=O)c4ccc(O)c(CC=C(C)C)c4)c(=O)oc3c2C)OC1(C)C [Novobiocin]
Conditions | Bliss interaction score
B. subtilis 168 [1] | 0.0565
S. aureus DSM 20231 | -0.0601
S. aureus Newman | -0.082
S. pneumoniae D39V | -0.106

fitness, B. subtilis 168 [2]
Conditions | first compound 0.625 µg/mL | first compound 1.25 µg/mL | first compound 2.5 µg/mL
partner 0.0125 µg/mL | 0.984 | 0.931 | 0.787
partner 0.025 µg/mL | 0.971 | 0.893 | 0.727
partner 0.05 µg/mL | 0.993 | 0.938 | 0.631

fitness, B. subtilis 168 [2], one replicate
Conditions | partner 0.1 µg/mL | partner 0.125 µg/mL | partner 0.2 µg/mL | partner 0.25 µg/mL | partner 0.5 µg/mL
first compound 0.625 µg/mL | 0.972 | 0.912 | ≥ 1 | 0.793 | 0.516
first compound 1.25 µg/mL | 0.99 | 0.901 | 0.971 | 0.785 | 0.305
first compound 2.5 µg/mL | 0.571 | 0.834 | 0.588 | 0.386 | 0.0091

CO/N=C(\C(=O)N[C@@H]1C(=O)N2C(C(=O)O)=C(COC(N)=O)CS[C@H]12)c1ccco1 [Cefuroxime] + CN(C)C(=O)C(CCN1CCC(O)(c2ccc(Cl)cc2)CC1)(c1ccccc1)c1ccccc1 [Loperamide]
Conditions | Bliss interaction score
B. subtilis 168 [1] | -0.12
S. aureus DSM 20231 | -0.521
S. aureus Newman | -0.0645
S. pneumoniae D39V | -0.0403

fitness, B. subtilis 168 [2]
Conditions | first compound 0.04875 µg/mL | first compound 0.0975 µg/mL | first compound 0.195 µg/mL
partner 50 µg/mL | 0.0325 | 0.0377 | 0.0259
partner 100 µg/mL | 0.0294 | 0.0312 | 0.0385

fitness, B. subtilis 168 [2], one replicate
Conditions | first compound 1.562 µg/mL | first compound 3.125 µg/mL | first compound 6.25 µg/mL
partner 25 µg/mL | 0.0361 | 0.0294 | 0.0192
partner 50 µg/mL | 0.0196 | 0.033 | 0.0196
partner 100 µg/mL | 0.012 | 0.0049 | 0.0099

C[C@H]1c2cccc(O)c2C(=O)C2=C(O)[C@]3(O)C(=O)C(C(N)=O)=C(O)[C@@H](N(C)C)[C@@H]3[C@@H](O)[C@@H]21 [Doxycycline] + COc1cc(Cc2cnc(N)nc2N)cc(OC)c1OC [Trimethoprim]
Conditions | Bliss interaction score
B. subtilis 168 [1] | 0.0804
S. aureus DSM 20231 | 0.108
S. aureus Newman | 0.028
S. pneumoniae D39V | -0.108

fitness, B. subtilis 168 [2], one replicate
Conditions | partner 0.1 µg/mL | partner 0.2 µg/mL | partner 0.4 µg/mL | partner 1 µg/mL | partner 2 µg/mL
first compound 0.02 µg/mL | 0.84 | 0.754 | 0.616 | 0.346 | 0.259
first compound 0.04 µg/mL | 0.683 | 0.51 | 0.391 | 0.234 | 0.146
first compound 0.08 µg/mL | 0.362 | 0.222 | 0.156 | 0.0631 | 0.0715

fitness, B. subtilis 168 [2]
Conditions | first compound 0.02 µg/mL | first compound 0.04 µg/mL | first compound 0.08 µg/mL
partner 0.125 µg/mL | 0.695 | 0.659 | 0.52
partner 0.25 µg/mL | – | 0.644 | 0.448
partner 0.5 µg/mL | – | 0.412 | 0.262

Cc1ncc([N+](=O)[O-])n1CCO [Metronidazole] + CO[C@@H]1[C@@H](OC(N)=O)[C@@H](O)[C@H](Oc2ccc3c(O)c(NC(=O)c4ccc(O)c(CC=C(C)C)c4)c(=O)oc3c2C)OC1(C)C [Novobiocin]
Conditions | Bliss interaction score
B. subtilis 168 [1] | 0.072
S. aureus DSM 20231 | 0.0355
S. aureus Newman | 0.05
S. pneumoniae D39V | 0.126

fitness, B. subtilis 168 [2]
Conditions | first compound 0.625 µg/mL | first compound 1.25 µg/mL | first compound 2.5 µg/mL
partner 0.0125 µg/mL | 0.969 | 0.954 | 0.968
partner 0.025 µg/mL | 0.998 | 0.977 | 0.986
partner 0.05 µg/mL | 0.969 | 0.977 | 0.98

fitness, B. subtilis 168 [2], one replicate
Conditions | first compound 0.625 µg/mL | first compound 1.25 µg/mL | first compound 2.5 µg/mL
partner 0.125 µg/mL | ≥ 1 | 0.958 | 0.915
partner 0.25 µg/mL | 0.923 | 0.916 | 0.908
partner 0.5 µg/mL | 0.584 | 0.633 | 0.552

C[C@@H]1O[C@@H]1P(=O)(O)O [Fosfomycin] + CO[C@@H]1[C@@H](OC(N)=O)[C@@H](O)[C@H](Oc2ccc3c(O)c(NC(=O)c4ccc(O)c(CC=C(C)C)c4)c(=O)oc3c2C)OC1(C)C [Novobiocin]
Conditions | Bliss interaction score
B. subtilis 168 [1] | -0.0536
S. aureus DSM 20231 | 0.1
S. aureus Newman | 0.0635
S. pneumoniae D39V | -0.102

fitness, B. subtilis 168 [2]
Conditions | first compound 1.562 µg/mL | first compound 3.124 µg/mL | first compound 6.248 µg/mL
partner 0.0125 µg/mL | 0.712 | 0.609 | 0.44
partner 0.025 µg/mL | 0.658 | 0.586 | 0.408
partner 0.05 µg/mL | 0.792 | 0.69 | 0.47

fitness, B. subtilis 168 [2], one replicate
Conditions | partner 0.1 µg/mL | partner 0.125 µg/mL | partner 0.2 µg/mL | partner 0.25 µg/mL | partner 0.5 µg/mL
first compound 1.562 µg/mL | 0.746 | 0.785 | 0.793 | 0.7 | 0.12
first compound 3.124 µg/mL | 0.698 | 0.782 | 0.691 | 0.637 | 0.0455
first compound 6.248 µg/mL | 0.531 | 0.551 | 0.507 | 0.36 | 0.0252

CO/N=C(\C(=O)N[C@@H]1C(=O)N2C(C(=O)O)=C(COC(N)=O)CS[C@H]12)c1ccco1 [Cefuroxime] + C[C@H]1c2cccc(O)c2C(=O)C2=C(O)[C@]3(O)C(=O)C(C(N)=O)=C(O)[C@@H](N(C)C)[C@@H]3[C@@H](O)[C@@H]21 [Doxycycline]
Conditions | Bliss interaction score
B. subtilis 168 [1] | 0.105
S. aureus DSM 20231 | -0.257
S. aureus Newman | -0.0377
S. pneumoniae D39V | 0.0445

fitness, B. subtilis 168 [2]
Conditions | first compound 0.04875 µg/mL | first compound 0.0975 µg/mL | first compound 0.195 µg/mL
partner 0.02 µg/mL | 0.663 | 0.603 | 0.514
partner 0.04 µg/mL | 0.6 | 0.525 | 0.358
partner 0.08 µg/mL | 0.174 | 0.14 | 0.12

fitness, B. subtilis 168 [2], one replicate
Conditions | first compound 0.39 µg/mL | first compound 0.78 µg/mL | first compound 1.562 µg/mL | first compound 3.125 µg/mL | first compound 6.25 µg/mL
partner 0.02 µg/mL | 0.488 | 0.451 | 0.441 | 0.424 | 0.393
partner 0.04 µg/mL | 0.313 | 0.298 | 0.239 | 0.148 | 0.0995
partner 0.08 µg/mL | 0.236 | 0.225 | 0.0559 | 0.0405 | 0.0345

O=C(O)c1cn(C2CC2)c2cc(N3CCNCC3)c(F)cc2c1=O [Ciprofloxacin] + COc1cc(Cc2cnc(N)nc2N)cc(OC)c1OC [Trimethoprim]
Conditions | Bliss interaction score
B. subtilis 168 [1] | 0.135
S. aureus DSM 20231 | -0.106
S. aureus Newman | -0.165
S. pneumoniae D39V | 0.0557

fitness, B. subtilis 168 [2], one replicate
Conditions | partner 0.1 µg/mL | partner 0.2 µg/mL | partner 0.4 µg/mL | partner 1 µg/mL | partner 2 µg/mL
first compound 0.0098 µg/mL | 0.863 | 0.721 | 0.516 | 0.342 | 0.321
first compound 0.0195 µg/mL | 0.835 | 0.552 | 0.457 | 0.333 | 0.349
first compound 0.039 µg/mL | 0.412 | 0.355 | 0.334 | 0.276 | 0.246

fitness, B. subtilis 168 [2]
Conditions | first compound 0.0098 µg/mL | first compound 0.0195 µg/mL | first compound 0.039 µg/mL
partner 0.125 µg/mL | 0.647 | 0.546 | 0.424
partner 0.25 µg/mL | 0.547 | 0.428 | 0.355
partner 0.5 µg/mL | 0.479 | 0.444 | 0.387

C[C@H]1c2cccc(O)c2C(=O)C2=C(O)[C@]3(O)C(=O)C(C(N)=O)=C(O)[C@@H](N(C)C)[C@@H]3[C@@H](O)[C@@H]21 [Doxycycline] + CO[C@@H]1[C@@H](OC(N)=O)[C@@H](O)[C@H](Oc2ccc3c(O)c(NC(=O)c4ccc(O)c(CC=C(C)C)c4)c(=O)oc3c2C)OC1(C)C [Novobiocin]
Conditions | Bliss interaction score
B. subtilis 168 [1] | 0.0575
S. aureus DSM 20231 | 0.0829
S. aureus Newman | 0.0369
S. pneumoniae D39V | 0.0928

fitness, B. subtilis 168 [2]
Conditions | first compound 0.02 µg/mL | first compound 0.04 µg/mL | first compound 0.08 µg/mL
partner 0.0125 µg/mL | 0.885 | 0.808 | 0.466
partner 0.025 µg/mL | 0.875 | 0.775 | 0.405
partner 0.05 µg/mL | 0.978 | 0.775 | –

fitness, B. subtilis 168 [2], one replicate
Conditions | partner 0.1 µg/mL | partner 0.125 µg/mL | partner 0.2 µg/mL | partner 0.25 µg/mL | partner 0.5 µg/mL
first compound 0.02 µg/mL | ≥ 1 | 0.861 | 0.979 | 0.963 | 0.623
first compound 0.04 µg/mL | 0.874 | 0.787 | 0.895 | 0.712 | 0.547
first compound 0.08 µg/mL | 0.675 | 0.341 | 0.71 | 0.103 | 0.0433
